Assays:
Enterobacter aerogenes = assay: Log 10 reduction of viable count of facultative anaerobic bacterium in dosed suspension (serial dilution into anaerobic acid producing media vials); assay type: cell-based; settings: for Log 10 Reduction Facultative Anaerobes: TDS 30,000 mg l^-1, 6 = complete kill; for effectiveness against aerobes (in words): short contact times, summary of Table 1, combination compared with chlorine dioxide alone
Protocol: (§1) A suspension of Desulfovibrio vulgaris plus Enterobacter aerogenes bacteria containing from 1×10^5 to 1×10^6 cells/mL was prepared in sterile pH 8 phosphate buffer containing sodium chloride to give the desired total dissolved solids (TDS) concentration. Aliquots of this suspension were dosed with the indicated concentrations of the compounds (a) and (b) with the concentrations being measured as ppm by weight of the stated composition in the dosed suspension. The mixtures were allowed to stand at room temperature. At the designated contact times, each mixture was sampled to determine the total number of viable cells of both Desulfovibrio vulgaris and Enterobacter aerogenes by serial 10-fold dilution into API RP 38 media vials and anaerobic acid producing media vials, respectively. The vials were incubated at 37° C. for 72 hours. Results were recorded as log10 reduction in the viable count versus the control.
(§2) Aqueous media inoculated with anaerobe and aerobe culture and having a TDS of 30,000 mg l^−1 was treated with treatment agents comprising: (i) tri n-butyl n-tetradecyl phosphonium chloride (TTPC); (ii) chlorine dioxide; or (ill) a combination of TTPC and chlorine dioxide.
(§3) TTPC was used in the form of Bellacide 350, an aqueous composition of TTPC and water consisting of water and 50% by weight of TTPC available from BWA Water Additives.
(§4) Chlorine dioxide was used in the form of CDG Solution 3000 a 0.3% aqueous solution of chlorine dioxide available from CDG Environmental, LLC.
(§5) The efficacy of the treatment agents was evaluated by measuring the Log 10 Reduction of the anaerobic bacterium Desulfovibrio vulgaris and the facultative anaerobic bacterium Enterobacter aerogenes after contact times of 10 minutes, 30 minutes and 60 minutes as detailed in Table 1. For TTPC the stated ppm value relates to the amount of TTPC added (active). For the chlorine dioxide the stated ppm relates to the amount of free residual of chlorine dioxide.

Desulfovibrio vulgaris = assay: Log 10 reduction of viable count of anaerobic bacterium in dosed suspension (serial dilution into API RP 38 media vials); assay type: cell-based; settings: for Log 10 Reduction Anaerobes: TDS 30,000 mg l^-1, 5 = complete kill; for effectiveness against anaerobes (in words): short contact times, summary of Table 1, combination compared with chlorine dioxide alone
Protocol: as §1, §2, §3, §4, §5

[1] = contact time 10 minutes, TTPC 3.125 ppm active
[2] = contact time 10 minutes, TTPC 6.25 ppm active
[3] = contact time 30 minutes, TTPC 3.125 ppm active
[4] = contact time 30 minutes, TTPC 6.25 ppm active
[5] = contact time 60 minutes, TTPC 3.125 ppm active
[6] = contact time 60 minutes, TTPC 6.25 ppm active
[7] = contact time 10 minutes, chlorine dioxide 0.25 ppm free residual
[8] = contact time 10 minutes, chlorine dioxide 0.5 ppm free residual
[9] = contact time 30 minutes, chlorine dioxide 0.25 ppm free residual
[10] = contact time 30 minutes, chlorine dioxide 0.5 ppm free residual
[11] = contact time 60 minutes, chlorine dioxide 0.25 ppm free residual
[12] = contact time 60 minutes, chlorine dioxide 0.5 ppm free residual

Q: For CCCCCCCCCCCCCC[P+](CCCC)(CCCC)CCCC.[Cl-] [TTPC, tri n-butyl n-tetradecyl phosphonium chloride], which “Log 10 Reduction Facultative Anaerobes” value (Enterobacter aerogenes; [1]) is on record?
A: Its value is 0.

Q: And the “Log 10 Reduction Facultative Anaerobes” value (Enterobacter aerogenes; [2])?
A: Its value is 0.

Q: What about the “Log 10 Reduction Facultative Anaerobes” value (Enterobacter aerogenes; [3]) of the same molecule?
A: The value was 0.

Q: And the “Log 10 Reduction Facultative Anaerobes” value (Enterobacter aerogenes; [4])?
A: The value was 1.

Q: And the “Log 10 Reduction Facultative Anaerobes” value (Enterobacter aerogenes; [5])?
A: The value was 0.

Q: What about the “Log 10 Reduction Facultative Anaerobes” value (Enterobacter aerogenes; [6]) of the same molecule?
A: Its value is 1.

Q: And the “effectiveness against aerobes (in words)” value (Enterobacter aerogenes)?
A: The value was “ineffective”.

Q: And the “Log 10 Reduction Anaerobes” value (Desulfovibrio vulgaris; [1])?
A: The value was 0.

Q: And the “Log 10 Reduction Anaerobes” value (Desulfovibrio vulgaris; [2])?
A: The value was 0.

Q: And the “Log 10 Reduction Anaerobes” value (Desulfovibrio vulgaris; [3])?
A: Its value is 0.

Q: And the “Log 10 Reduction Anaerobes” value (Desulfovibrio vulgaris; [4])?
A: Its value is 2.

Q: What about the “Log 10 Reduction Anaerobes” value (Desulfovibrio vulgaris; [5]) of the same molecule?
A: Its value is 0.

Q: And the “Log 10 Reduction Anaerobes” value (Desulfovibrio vulgaris; [6])?
A: The value was 5.

Q: And the “effectiveness against anaerobes (in words)” value (Desulfovibrio vulgaris)?
A: Its value is “ineffective”.

Q: Which “Log 10 Reduction Facultative Anaerobes” value (Enterobacter aerogenes; [7]) does the source give for [O][Cl+][O-] [chlorine dioxide] here?
A: The value was 3.

Q: What about the “Log 10 Reduction Facultative Anaerobes” value (Enterobacter aerogenes; [8]) of the same molecule?
A: The value was 6.

Q: What about the “Log 10 Reduction Facultative Anaerobes” value (Enterobacter aerogenes; [9]) of the same molecule?
A: Its value is 3.

Q: And the “Log 10 Reduction Facultative Anaerobes” value (Enterobacter aerogenes; [10])?
A: Its value is 6.

Q: What about the “Log 10 Reduction Facultative Anaerobes” value (Enterobacter aerogenes; [11]) of the same molecule?
A: The value was 3.

Q: What about the “Log 10 Reduction Facultative Anaerobes” value (Enterobacter aerogenes; [12]) of the same molecule?
A: Its value is 6.

Q: What about the “effectiveness against aerobes (in words)” value (Enterobacter aerogenes) of the same molecule?
A: The value was “effective”.

Q: What about the “Log 10 Reduction Anaerobes” value (Desulfovibrio vulgaris; [7]) of the same molecule?
A: Its value is 3.

Q: And the “Log 10 Reduction Anaerobes” value (Desulfovibrio vulgaris; [8])?
A: The value was 4.

Q: What about the “Log 10 Reduction Anaerobes” value (Desulfovibrio vulgaris; [9]) of the same molecule?
A: Its value is 3.

Q: What about the “Log 10 Reduction Anaerobes” value (Desulfovibrio vulgaris; [10]) of the same molecule?
A: The value was 5.

Q: And the “Log 10 Reduction Anaerobes” value (Desulfovibrio vulgaris; [11])?
A: Its value is 3.

Q: And the “Log 10 Reduction Anaerobes” value (Desulfovibrio vulgaris; [12])?
A: The value was 5.

Q: What about the “effectiveness against anaerobes (in words)” value (Desulfovibrio vulgaris) of the same molecule?
A: Its value is “effective”.

Source: patent publication US10538442B2, “Water treatment” (priority 2015, dated 2020)
